As a reminder, the GI50 is the concentration at which growth is held to half of that of the control. A word on the TGI: it is the concentration giving total growth inhibition. The low end stands for more potent growth arrest, the high end for less potent growth arrest.

Experimental findings from PubChem BioAssay (NCI) are described below.

Some test systems named below: 786-0 renal; COLO 205 colon; HL-60(TB) leukemia; HS 578T breast; KM12 colon; LOX IMVI melanoma; SF-268 CNS; SK-MEL-5 melanoma; SN12C renal; U251 CNS.
What all share (assay): DTP human tumour cell line panel, 48 h

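Tested at 5 concentrations; 48 h exposure; 96-well plates; endpoints linearly interpolated, else capped at highest concentration. GI50 = concentration required for 50% inhibition of growth. TGI: total growth inhibition.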 A value given as a limit tells only on which side of the number the result lay.

For `COc1ccc(C(=O)Nc2ncc(Cc3cccc(Cl)c3)s2)cc1OC`, the GI50 with 786-0 renal was 1330 nM; in the test on COLO 205 colon, 222 nM; in the test with HL-60(TB) leukemia, 325 nM; with HS 578T breast, 445 nM; in the test with KM12 colon, 54.7 nM; in the test on LOX IMVI melanoma, 19.7 nM. For the same molecule, the GI50 in the test with SF-268 CNS is 882 nM; in the test on SK-MEL-5 melanoma it was 247 nM; in the test with SN12C renal, 1330 nM; in the test on U251 CNS it was 505 nM. Besides, the TGI is over 100000 nM in the test with 786-0 renal; over 100000 nM with COLO 205 colon; over 71000 nM in the test on HL-60(TB) leukemia; over 100000 nM in the test on HS 578T breast; over 100000 nM in the test on KM12 colon; over 100000 nM in the test on LOX IMVI melanoma. The TGI in the test on SF-268 CNS was over 100000 nM; in the test with SK-MEL-5 melanoma, 11100 nM; in the test with SN12C renal it was over 100000 nM; in the test on U251 CNS, over 100000 nM.

For `Nc1c(C(=O)c2ccc(-c3cccnc3)cc2)cnn1-c1ccc(F)cc1`, the GI50 in the test with 786-0 renal was over 18400 nM; in the test with COLO 205 colon it was over 21900 nM; in the test on HL-60(TB) leukemia, over 13800 nM; with HS 578T breast, over 25000 nM; with KM12 colon it was over 20800 nM; in the test with LOX IMVI melanoma, over 25000 nM. Moreover, the GI50 in the test on SF-268 CNS is over 15800 nM; with SK-MEL-5 melanoma, over 15200 nM; in the test on SN12C renal it was over 19500 nM; in the test with U251 CNS, over 15200 nM. Besides, the TGI in the test on 786-0 renal, in the test with COLO 205 colon, in the test with HL-60(TB) leukemia, with HS 578T breast, with KM12 colon and in the test with LOX IMVI melanoma was over 25000 nM in each case. Also, the TGI in the test with SF-268 CNS, with SK-MEL-5 melanoma, in the test with SN12C renal and with U251 CNS was over 25000 nM throughout.

Take `O=C(COc1ccc(/C=C2\COc3ccccc3C2=O)cc1)Nc1nccs1`: the GI50 in the test with 786-0 renal is 13900 nM; with COLO 205 colon it was 14600 nM; with HL-60(TB) leukemia, 1680 nM; in the test with HS 578T breast it was 2740 nM; with KM12 colon it was 3280 nM; in the test on LOX IMVI melanoma, 2640 nM. The GI50 with SF-268 CNS is 6810 nM; in the test with SK-MEL-5 melanoma, 12800 nM; in the test with SN12C renal it was 5690 nM; with U251 CNS it was 6290 nM. Besides, the TGI was 28100 nM with 786-0 renal; 29000 nM in the test on COLO 205 colon; 3480 nM in the test on HL-60(TB) leukemia; 9400 nM in the test on HS 578T breast; 10500 nM with KM12 colon; 7330 nM in the test on LOX IMVI melanoma. In addition, the TGI in the test on SF-268 CNS is 21700 nM; in the test on SK-MEL-5 melanoma, 26700 nM; in the test on SN12C renal it was 25700 nM; with U251 CNS, 19100 nM.

With `CC[C@@H]1[C@@H](C)O[C@@](O)([C@@H](C)[C@H](O)[C@H](C)[C@H]2OC(=O)/C=C/C=C/[C@H](C)[C@@H]([C@@H](C)[C@@H](O)[C@H](C)[C@@]3(O)C[C@@H](O[C@H]4C[C@@H](O)[C@H](O)C(C)O4)[C@H](CC)[C@@H](C)O3)OC(=O)/C=C/C=C/[C@@H]2C)C[C@H]1O[C@@H]1C[C@@H](O)[C@H](O)C(C)O1` (stereo partly specified), the GI50 is 125 nM in the test with 786-0 renal; 79.5 nM in the test with COLO 205 colon; 70.8 nM in the test with HL-60(TB) leukemia; 79.8 nM in the test with HS 578T breast; 125 nM in the test with KM12 colon; 61.1 nM in the test with LOX IMVI melanoma. For the same molecule, the GI50 in the test with SF-268 CNS is 69.8 nM; in the test on SK-MEL-5 melanoma, 53.1 nM; in the test on SN12C renal, 58.4 nM; in the test on U251 CNS, 113 nM. Moreover, the TGI in the test on 786-0 renal was 464 nM; in the test with COLO 205 colon, 179 nM; in the test on HL-60(TB) leukemia it was 140 nM; in the test with HS 578T breast it was 253 nM; with KM12 colon it was 413 nM; in the test on LOX IMVI melanoma it was 117 nM. The TGI in the test on SF-268 CNS came to 175 nM; in the test with SK-MEL-5 melanoma, 99.2 nM; with SN12C renal, 126 nM; in the test with U251 CNS, 390 nM.

`C[C@]12CC[C@@H]3c4cc(OC(F)F)c(O)cc4CC[C@H]3[C@@H]1CC[C@@H]2OS(N)(=O)=O`: the GI50 in the test with 786-0 renal was 1260 nM; in the test on COLO 205 colon, 1100 nM; in the test with HL-60(TB) leukemia it was 313 nM; in the test on HS 578T breast, 475 nM; in the test on KM12 colon, 545 nM; in the test on LOX IMVI melanoma, 585 nM. In addition, the GI50 in the test with SF-268 CNS is 3150 nM; in the test on SK-MEL-5 melanoma, 634 nM; with SN12C renal, 1020 nM; with U251 CNS it was 549 nM. Also, the TGI in the test with 786-0 renal was over 100000 nM; in the test with COLO 205 colon, over 40000 nM; in the test on HL-60(TB) leukemia, 2800 nM; in the test with HS 578T breast, 48800 nM; with KM12 colon it was 31000 nM; in the test on LOX IMVI melanoma, 22600 nM. Further, the TGI in the test with SF-268 CNS is over 100000 nM; in the test with SK-MEL-5 melanoma, 13300 nM; in the test on SN12C renal it was 70500 nM; in the test with U251 CNS it was 19500 nM.

In the case of `Nc1nc2c(ncn2C2CCC(CO)O2)c(=O)n1C(=O)c1ccccc1` (stereo unspecified), the TGI in the test on 786-0 renal, in the test on COLO 205 colon, with HL-60(TB) leukemia, with HS 578T breast, with KM12 colon and with LOX IMVI melanoma was over 100000 nM each time. The TGI in the test with SF-268 CNS, in the test on SK-MEL-5 melanoma, in the test with SN12C renal and with U251 CNS was over 100000 nM each time.

Consider `CC[C@H]1CN2CCc3cc(OC)c(OC)cc3C2C[C@@H]1CC1NCCc2cc(OC)c(OC)cc21` (stereo partly specified), for which the TGI with 786-0 renal was found to be 128 nM; in the test on COLO 205 colon, 17 nM; in the test with HL-60(TB) leukemia, 144 nM; in the test on HS 578T breast, 1750 nM; in the test on KM12 colon, 98.6 nM; in the test with LOX IMVI melanoma, 22.4 nM. The TGI in the test on SK-MEL-5 melanoma came out at 92.8 nM; with SN12C renal, 289 nM. Moreover, the GI50 in the test with HL-60(TB) leukemia is 20.4 nM.

For `C[C@]12CCc3nc(Nc4cccc(O)c4)sc3C1=CC[C@@H]1[C@@H]2CC[C@]2(C)/C(=N\NC(N)=S)CC[C@@H]12`, the GI50 was 1440 nM in the test on 786-0 renal; 1910 nM with COLO 205 colon; 2530 nM in the test on HL-60(TB) leukemia; 843 nM in the test on HS 578T breast; 1520 nM in the test with LOX IMVI melanoma; 1660 nM in the test with SF-268 CNS. Moreover, the GI50 in the test on SK-MEL-5 melanoma was 1800 nM; in the test on SN12C renal it was 1980 nM; in the test with U251 CNS, 1150 nM. Also, the TGI in the test with 786-0 renal was 4310 nM; in the test with COLO 205 colon, 3610 nM; in the test with HL-60(TB) leukemia it was 8310 nM; in the test with LOX IMVI melanoma, 2850 nM; in the test on SF-268 CNS it was 4450 nM; in the test on SK-MEL-5 melanoma, 3630 nM. Moreover, the concentration for total growth inhibition (TGI) in the test on SN12C renal was found to be 5310 nM; in the test with U251 CNS, 2960 nM.
